Laboratory results as given in patent US6936585B2, “Corticotropin releasing factor 2 receptor agonists” (priority 2002, dated 2005).
Ends that are not written are not given here. Peptide text beside a SMILES is read from it.

Tests used:
CRF2R = target: T1, CRF2R (Homo sapiens, UniProt Q13324); assay: CRF2R agonist activation (EC50 / Emax), called comparative CRF binding; format: cell-based; details: for Emax: read-out: CRF2R Emax
T1 sequence (Q13324 1-411): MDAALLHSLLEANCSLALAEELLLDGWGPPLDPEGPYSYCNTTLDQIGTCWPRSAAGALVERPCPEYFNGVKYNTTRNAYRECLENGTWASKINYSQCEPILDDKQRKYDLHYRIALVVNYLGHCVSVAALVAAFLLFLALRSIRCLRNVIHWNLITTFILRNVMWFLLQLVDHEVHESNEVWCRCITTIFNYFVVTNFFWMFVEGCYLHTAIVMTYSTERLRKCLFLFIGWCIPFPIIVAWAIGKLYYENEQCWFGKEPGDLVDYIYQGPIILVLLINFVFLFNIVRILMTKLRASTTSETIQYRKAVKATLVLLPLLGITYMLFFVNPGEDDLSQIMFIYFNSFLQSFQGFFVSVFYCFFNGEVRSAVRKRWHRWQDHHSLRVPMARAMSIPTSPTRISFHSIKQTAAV
Method in brief: (§1)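 Receptor-expressing cells are contacted with test peptide or the vehicle it is dissolved in. Lysates are then assayed for cAMP, or expression of a CRE-coupled reporter is quantitated. Engineered cells carrying receptor-G-protein fusions may replace full-length receptors.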

CRF1R = target: T2, CRF1R (Homo sapiens, UniProt P34998); assay: CRF1R agonist activation (EC50 / Emax), called comparative CRF binding; format: cell-based; details: for Emax: read-out: CRF1R Emax
T2 sequence (P34998 24-415): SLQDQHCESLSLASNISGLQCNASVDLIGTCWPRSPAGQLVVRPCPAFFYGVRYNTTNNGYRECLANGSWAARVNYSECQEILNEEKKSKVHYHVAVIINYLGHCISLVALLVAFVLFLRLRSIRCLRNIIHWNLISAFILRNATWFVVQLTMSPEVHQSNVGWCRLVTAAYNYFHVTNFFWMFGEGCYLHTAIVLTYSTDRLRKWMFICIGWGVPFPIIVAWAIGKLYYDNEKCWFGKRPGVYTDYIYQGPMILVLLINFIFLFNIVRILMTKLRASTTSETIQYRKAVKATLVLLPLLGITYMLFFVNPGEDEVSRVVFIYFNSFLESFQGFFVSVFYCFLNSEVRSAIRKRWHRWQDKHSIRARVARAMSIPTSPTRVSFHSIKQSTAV
Method in brief: as §1

With `CC[C@H](C)[C@H](N)C(=O)N[C@H](C(=O)N[C@@H](CC(C)C)C(=O)N[C@@H](CO)C(=O)N[C@@H](CC(C)C)C(=O)N[C@@H](CC(=O)O)C(=O)N[C@H](C(=O)N1CCC[C@H]1C(=O)N[C@H](C(=O)NCC(=O)N[C@@H](CC(C)C)C(=O)N[C@@H](CC(C)C)C(=O)N[C@@H](CCC(N)=O)C(=O)N[C@H](C(=O)N[C@@H](CC(C)C)C(=O)N[C@@H](CC(C)C)C(=O)N[C@@H](CCC(=O)O)C(=O)N[C@@H](CCC(N)=O)C(=O)N[C@@H](C)C(=O)N[C@@H](CCCNC(=N)N)C(=O)N[C@@H](C)C(=O)N[C@@H](CCCNC(=N)N)C(=O)N[C@@H](C)C(=O)N[C@@H](C)C(=O)N[C@@H](CCCNC(=N)N)C(=O)N[C@@H](CCC(=O)O)C(=O)N[C@@H](CCC(N)=O)C(=O)N[C@@H](C)C(=O)N[C@H](C(=O)N[C@H](C(=O)N[C@@H](CCC(N)=O)C(=O)N[C@@H](C)C(=O)N[C@@H](CCCNC(=N)N)C(=O)N[C@H](C(=O)N[C@@H](CC(C)C)C(=O)N[C@@H](C)C(=O)N[C@@H](CCCNC(=N)N)C(=O)N[C@H](C(N)=O)C(C)C)[C@@H](C)CC)[C@@H](C)O)[C@@H](C)O)[C@@H](C)CC)[C@@H](C)CC)C(C)C)C(C)C` [compound 9] (H-IVLSLDVPIGLLQILLEQARARAAREQATTQARILARV-NH2) the Emax (CRF2R) was 34% and the Emax (CRF1R) was 10%.

`CC[C@H](C)[C@H](N)C(=O)N[C@H](C(=O)N[C@@H](CC(C)C)C(=O)N[C@@H](CO)C(=O)N[C@@H](CC(C)C)C(=O)N[C@@H](CC(=O)O)C(=O)N[C@H](C(=O)N1CCC[C@H]1C(=O)N[C@H](C(=O)NCC(=O)N[C@@H](CC(C)C)C(=O)N[C@@H](CC(C)C)C(=O)N[C@@H](CCC(N)=O)C(=O)N[C@H](C(=O)N[C@@H](CC(C)C)C(=O)N[C@@H](CC(C)C)C(=O)N[C@@H](CCC(=O)O)C(=O)N[C@@H](CCC(N)=O)C(=O)N[C@@H](C)C(=O)N[C@@H](CCCCN)C(=O)N[C@@H](C)C(=O)N[C@@H](CCC(=O)O)C(=O)N[C@@H](C)C(=O)N[C@@H](C)C(=O)N[C@@H](CCCNC(=N)N)C(=O)N[C@@H](CCC(=O)O)C(=O)N[C@@H](CCC(N)=O)C(=O)N[C@@H](C)C(=O)N[C@H](C(=O)N[C@H](C(=O)N[C@@H](CC(N)=O)C(=O)N[C@@H](C)C(=O)N[C@@H](CCCNC(=N)N)C(=O)N[C@H](C(=O)N[C@@H](CC(C)C)C(=O)N[C@@H](C)C(=O)N[C@@H](CCCNC(=N)N)C(=O)N[C@H](C(N)=O)C(C)C)[C@@H](C)CC)[C@@H](C)O)[C@@H](C)O)[C@@H](C)CC)[C@@H](C)CC)C(C)C)C(C)C` [compound 112] (H-IVLSLDVPIGLLQILLEQAKAEAAREQATTNARILARV-NH2; N-terminus assumed) showed an EC50 (CRF2R; read-out: CRF2R EC50) of 12.3 nM, an Emax (CRF2R) of 100% and an EC50 (CRF1R; read-out: CRF1R EC50) greater than 100 nM. For the same compound, the Emax (CRF1R) was 10%.

In the case of `CC[C@H](C)[C@H](NC(=O)[C@H](C)NC(=O)[C@H](CC(N)=O)NC(=O)[C@H](CCC(N)=O)NC(=O)[C@H](CCC(=O)O)NC(=O)[C@H](C)NC(=O)[C@H](CCCNC(=N)N)NC(=O)[C@H](CCC(=O)O)NC(=O)[C@H](CCCNC(=N)N)NC(=O)[C@H](CCC(N)=O)NC(=O)[C@H](CO)NC(=O)[C@H](CCC(N)=O)NC(=O)[C@@H](NC(=O)[C@H](CCCCN)NC(=O)[C@H](CCC(=O)O)NC(=O)[C@H](CC(C)C)NC(=O)[C@H](CCC(=O)O)NC(=O)[C@H](CC(C)C)NC(=O)[C@H](CC(C)C)NC(=O)[C@@H](NC(=O)[C@H](CCCNC(=N)N)NC(=O)[C@H](CC(C)C)NC(=O)[C@H](CC(C)C)NC(=O)[C@H](Cc1ccccc1)NC(=O)[C@H](CC(C)C)NC(=O)[C@@H]1CCCN1C(=O)[C@H](CC(C)C)NC(=O)[C@H](CC(=O)O)NC(=O)[C@@H](NC(=O)[C@H](CO)NC(=O)[C@H](CC(C)C)NC(=O)[C@H](CO)NC(=O)[C@@H]1CCCN1C(=O)[C@H](CC(N)=O)NC(=O)[C@@H](N)CC(=O)O)[C@@H](C)CC)[C@@H](C)O)[C@@H](C)O)C(=O)N[C@H](C(=O)N[C@@H](Cc1ccccc1)C(=O)N[C@@H](C)C(=O)N[C@@H](CO)C(=O)N[C@H](C(N)=O)C(C)C)[C@@H](C)CC` [compound 343] (H-DNPSLSIDLPLFLLRTLLELEKTQSQRERAEQNAIIFASV-NH2; N-terminus assumed), the Emax (CRF2R) is reported as 96.5% and the Emax (CRF1R) is reported as 62.5%.

For `CC[C@H](C)[C@H](NC(=O)[C@H](CC(=O)O)NC(=O)[C@H](CC(C)C)NC(=O)[C@H](CC(C)C)NC(=O)[C@H](CCCCN)NC(=O)[C@H](CCCNC(=N)N)NC(=O)[C@H](CC(N)=O)NC(=O)[C@H](CO)NC(=O)[C@H](Cc1c[nH]cn1)NC(=O)[C@H](C)NC(=O)[C@H](CCC(N)=O)NC(=O)[C@H](CCC(N)=O)NC(=O)[C@H](C)NC(=O)[C@H](CC(C)C)NC(=O)[C@H](CCC(N)=O)NC(=O)[C@H](CC(=O)O)NC(=O)[C@H](C)NC(=O)[C@H](CCCCN)NC(=O)[C@@H](NC(=O)[C@H](CCSC)NC(=O)[C@H](CCC(=O)O)NC(=O)[C@H](CC(C)C)NC(=O)[C@@H](NC(=O)[C@H](CCC(=O)O)NC(=O)[C@H](CCCNC(=N)N)NC(=O)[C@H](CC(C)C)NC(=O)[C@H](CC(C)C)NC(=O)[C@H](Cc1c[nH]cn1)NC(=O)[C@H](Cc1ccccc1)NC(=O)[C@@H]1CCCN1C(=O)[C@H](CC(C)C)NC(=O)[C@H](CC(=O)O)NC(=O)[C@H](CC(C)C)NC(=O)[C@H](CO)NC(=O)[C@@H](NC(=O)[C@@H]1CCCN1C(=O)[C@@H]1CCCN1C(=O)[C@H](CCC(=O)O)NC(=O)[C@H](CCC(N)=O)NC(=O)[C@@H](N)CO)[C@@H](C)CC)C(C)C)[C@@H](C)O)C(=O)N[C@@H](C)C(N)=O` [compound 104], the Emax (CRF2R) was 4.5% and the Emax (CRF1R) was 11.1%.

With “SQEPPISLDLPLGLLREVLEMTKADQLAQQAHSNRKLLDIA-NH2 [compound 90]” the Emax (CRF2R) was 12.2% and the Emax (CRF1R) was 4%.

For `CC[C@H](C)[C@H](N)C(=O)N[C@H](C(=O)N[C@@H](CC(C)C)C(=O)N[C@@H](CO)C(=O)N[C@@H](CC(C)C)C(=O)N[C@@H](CC(=O)O)C(=O)N[C@H](C(=O)N1CCC[C@H]1C(=O)N[C@H](C(=O)N[C@@H](Cc1c[nH]cn1)C(=O)N[C@@H](CC(C)C)C(=O)N[C@@H](CC(C)C)C(=O)N[C@@H](CCC(N)=O)C(=O)N[C@H](C(=O)N[C@@H](CC(C)C)C(=O)N[C@@H](CC(C)C)C(=O)N[C@@H](CCC(=O)O)C(=O)N[C@@H](CCC(N)=O)C(=O)N[C@@H](C)C(=O)N[C@@H](CCCNC(=N)N)C(=O)N[C@@H](C)C(=O)N[C@@H](CCCNC(=N)N)C(=O)N[C@@H](C)C(=O)N[C@@H](C)C(=O)N[C@@H](CCCNC(=N)N)C(=O)N[C@@H](CCC(=O)O)C(=O)N[C@@H](CCC(N)=O)C(=O)N[C@@H](C)C(=O)N[C@H](C(=O)N[C@H](C(=O)N[C@@H](CC(N)=O)C(=O)N[C@@H](C)C(=O)N[C@@H](CCCNC(=N)N)C(=O)N[C@H](C(=O)N[C@@H](CC(C)C)C(=O)N[C@@H](C)C(=O)N[C@@H](CCCNC(=N)N)C(=O)N[C@H](C(N)=O)C(C)C)[C@@H](C)CC)[C@@H](C)O)[C@@H](C)O)[C@@H](C)CC)[C@@H](C)CC)C(C)C)C(C)C` [compound 371] (H-IVLSLDVPIHLLQILLEQARARAAREQATTNARILARV-NH2; N-terminus assumed), the Emax (CRF2R) was 97% and the Emax (CRF1R) was 22%.
